Results taken from article PMC9653470 (2022).
Entries after “also recorded” stand apart in the source; their conditions may differ.

Assay: fresh human plasma
Conditions: 37 °C, up to 24 hours

H2N-USPGYS-NH2
fragment found: a, major; also recorded: b, major
